Results on 22 compounds are retold here after US20140377219A1, “HIV INHIBITORS” (New york Blood Center, Inc., priority 2011, published 2014).

The structures appear in SMILES notation. Where a name gives a salt, the structure may show the parent alone. Read-outs that look alike come from different tables or passages of the source. Where only a bound is given, the exact number is not on record here.

For data set [1], the system named is laboratory-adapted HIV-1 IIIB strain. Kind of data set: microbe, parasite or virus in culture. As to conditions: Human immunodeficiency virus 1, IIIB, MT2, read-out: MT-2 Cells IC50 (μM ± SD).
Experimental: (§1) In brief, 1×10^4 MT-2 cells were infected with HIV-1 at 100 TCID50 (50% tissue culture infective dose) (0.01MOI) in 200 μl medium in the presence or absence of small molecules at graded concentrations and incubated overnight. The culture supernatants were then removed and replaced with fresh media. On the fourth day post-infection, 100 μl of culture supernatants were collected from each well, mixed with equal volume of 5% Triton X-100 and tested for p24 antigen by sandwich-ELISA. The percent inhibition of p24 production and IC50 values were calculated by the GraphPad Prism software (GraphPad Software Inc.).
Data set [2] has as its system MT-2 cells. Nature of the data set: Cytotoxicity in MT-2 cells (XTT). As to conditions: for % toxicity at that dose (number in parenthesis), MT-2 cells: at the dose given as CC50 bound. The format is cell-based. The method, then: Cytotoxicity of small molecules in MT-2 cells and PBMC was measured by the XTT ((sodium 3′-(1-(phenylamino)-carbonyl)-3,4-tetrazolium-bis(4-methoxy-6-nitro)benzene-sulfonic acid hydrate)) method. Briefly, for MT-2 cells, 100 μl of a small molecule at graded concentrations was added to an equal volume of cells (10^5 cells/ml) in 96-well plates followed by incubation at 37° C. for four days, which ran parallel with the neutralization assay in MT-2 (except medium was added instead of virus). In the case of PBMC, 5×10^5 cells/ml was used and the cytotoxicity was measured after seven days. […] The percentage cytotoxicity and the CC50 values were calculated as described above.

The subject of data set [3] is TZM-bl cells. Nature of the data set: Cytotoxicity in TZM-bl cells (XTT). It is filed as cell-based. Here is the method:
The cytotoxicity of small molecules in TZM-bl cells was measured by a colorimetric method using XTT (sodium 3′-(1-(phenylamino)-carbonyl)-3,4-tetrazolium-bis(4-methoxy-6-nitro)benzenesulfonic acid hydrate), a light yellowish tetrazolium dye. Briefly, 100 μl of a compound at graded concentrations was added to equal volume of cells (10^5/ml) in wells of 96-well plates followed by incubation at 37° C. for 3 days and addition of XTT (PolySciences, Inc., Warrington, Pa.).

Data set [4] relates to laboratory-adapted HIV-1 IIIB strain. The following applies: read-out: MT-2 Cells IC50 (μM ± SD); multi-cycle assay, MT-2 cells, HIV-1 IIIB.
Experimental: as §1
Where [5] appears, read: MT-2 cells, XTT, four days, read-out: MT-2 Cells CC50.
Where [6] appears, read: TZM-bl cells, XTT, 3 days, read-out: TZM-bl cells CC50 (μM ± SD).
The mark [7] stands for this setting: at the dose given as CC50 bound.

One may read the IC50 as the midpoint of a concentration-inhibition curve. In general, CC50 refers to the concentration at which the toxic effect on the cells reaches its halfway point.

On to `C[C@@H](NC(=O)C(=O)Nc1ccc(Cl)cc1)[C@H](c1ccccc1)N1CCOCC1` [Compound 19, N^1-(4-chlorophenyl)-N^2-((1S,2R)-1-morpholino-1-phenylpropan-2-yl)oxalamide], for which the IC50 in data set [1] is above 24.9 µM.

With `Cc1nc(C(NC(=O)C(=O)Nc2ccc(C(F)(F)F)cc2)C2CCCCN2)sc1CO.Cl.Cl` (centres unmarked) [Compound 20, N^1-((5-(hydroxymethyl)-4-methylthiazol-2-yl)(piperidin-2-yl)methyl)-N^2-(4-(trifluoromethyl)phenyl)oxalamide.2HCl], the CC50 in data set [2] (setting [5]) and in data set [3] (setting [6]) was above 75.5 µM in each case. The “% toxicity at that dose (number in parenthesis), TZM-bl cells” value (“% toxicity at that dose … TZM-bl cells” below) in data set [3] (setting [7]) was 10%. In data set [4], the IC50 came out at 4.6 ± 0.3 µM.

With `Cc1nc(C(NC(=O)C(=O)Nc2ccc(F)cc2F)C2CCCCN2)sc1CO` (centres unmarked) [Compound 21, N^1-(2,4-difluorophenyl)-N^2-((5-(hydroxymethyl)-4-methylthiazol-2-yl)(piperidin-2-yl)methyl)oxalamide.HCl], the CC50 in data set [2] (setting [5]) was above 110 µM; in data set [3] (setting [6]), above 87 µM. Further, in data set [4], the IC50 is around 110 µM.

On to `Cc1nc(C(NC(=O)C(=O)Nc2ccc(F)c(F)c2)C2CCCCN2)sc1CO.Cl` (centres unmarked) [Compound 22, N^1-(3,4-difluorophenyl)-N^2-((5-(hydroxymethyl)-4-methylthiazol-2-yl)(piperidin-2-yl)methyl)oxalamide.HCl], for which the CC50 in data set [2] (setting [5]) and in data set [3] (setting [6]) was above 87 µM throughout. For the same compound, in data set [3] (setting [7]), the “% toxicity at that dose … TZM-bl cells” value is 0%. For the same compound, the concentration for half-maximal inhibition (IC50) in data set [4] is 14 ± 3.8 µM.

As for `CC(=O)c1ccc(NC(=O)C(=O)NC(c2nc(C)c(CO)s2)C2CCCCN2)cc1` (centres unmarked) [Compound 23, N^1-(4-acetylphenyl)-N^2-((5-(hydroxymethyl)-4-methylthiazol-2-yl)(piperidin-2-yl)methyl)oxalamide.HCl], the figures for the CC50 in data set [2] and in data set [3] were above 107 µM and above 86 µM, respectively. Besides, in data set [4], the IC50 was around 107 µM.

`Cc1nc(C(NC(=O)C(=O)Nc2ccc(F)c(Cl)c2)C2CCCCN2)sc1CO.Cl.Cl` (centres unmarked) [Compound 24, N^1-(3-chloro-4-fluorophenyl)-N^2-((5-(hydroxymethyl)-4-methylthiazol-2-yl)(piperidin-2-yl)methyl)oxalamide.2HCl] returned a CC50 in data set [2] above 77.8 µM. Moreover, in data set [3], the “% toxicity at that dose … TZM-bl cells” value is >77.8 (0%) and the half-maximal cytotoxic concentration (CC50) is above 77.8 µM. The IC50 in data set [4] was found to be 9.5 ± 1.4 µM.

Turning to `Cc1nc(C(NC(=O)C(=O)Nc2ccc(F)cc2)C2CCCCN2)sc1CO.Cl` (centres unmarked) [Compound 25, N^1-(4-fluorophenyl)-N^2-((5-(hydroxymethyl)-4-methylthiazol-2-yl)(piperidin-2-yl)methyl)oxalamide.HCl], the CC50 in data set [2] is above 113 µM; in data set [3], above 90 µM. The “% toxicity at that dose … TZM-bl cells” value in data set [3] (setting [7]) was determined as 0%. The 50% inhibitory concentration (IC50) in data set [4] was determined as 48 ± 5.5 µM.

`Cc1ccc(NC(=O)C(=O)NC(c2nc(C)c(CO)s2)C2CCCCN2)c(F)c1` (centres unmarked) [Compound 26, N^1-(2-fluoro-4-methylphenyl)-N^2-((5-(hydroxymethyl)-4-methylthiazol-2-yl)(piperidin-2-yl)methyl)oxalamide.HCl]: the figures for the CC50 in data set [2] (setting [5]) and in data set [3] (setting [6]) were above 109 µM and above 88 µM, respectively. The IC50 in data set [4] is around 66 µM.

As to `Cc1nc(C(NC(=O)C(=O)NC2CCCCCC2)C2CCCCN2)sc1CO` (centres unmarked) [Compound 29, N^1-cycloheptyl-N^2-((5-(hydroxymethyl)-4-methylthiazol-2-yl)(piperidin-2-yl)methyl)oxalamide.HCl], the CC50 in data set [2] (setting [5]) and in data set [3] (setting [6]) was above 90 µM each time. For the same compound, the IC50 in data set [4] is 39.3 ± 5 µM.

Take `Cc1nc(C(NC(=O)C(=O)Nc2ccc(Cl)cc2)C2CCCCN2)sc1CCO.O=CO` (centres unmarked) [Compound 30, N^1-(4-chlorophenyl)-N^2-((5-(2-hydroxyethyl)-4-methylthiazol-2-yl)(piperidin-2-yl)methyl)oxalamide.HCOOH]: the CC50 in data set [2] (setting [5]) was above 62 µM; in data set [3] (setting [6]), 32.8 ± 0.6 µM. Besides, in data set [2], the “% toxicity at that dose (number in parenthesis), MT-2 cells” value is 0%. Moreover, the IC50 in data set [4] was 4.2 ± 0.3 µM.

With `Cc1nc(C(NC(=O)C(=O)Nc2ccc(C(F)(F)F)cc2)C2CCCCN2)sc1CCO.Cl.Cl` (centres unmarked) [Compound 31, N^1-((5-(2-hydroxyethyl)-4-methylthiazol-2-yl)(piperidin-2-yl)methyl)-N^2-(4-(trifluoromethyl)phenyl)oxalamide.2HCl], the values for the CC50 in data set [2] (setting [5]) and in data set [3] (setting [6]) were above 39 µM and above 74 µM, respectively. Besides, the “% toxicity at that dose … TZM-bl cells” value in data set [3] (setting [7]) is reported as 35%. Moreover, the half-inhibitory concentration (IC50) in data set [4] is 17.4 ± 5.7 µM.

With `Cc1nc(C(NC(=O)C(=O)Nc2ccc(F)cc2F)C2CCCCN2)sc1CCO` (centres unmarked) [Compound 32, N^1-(2,4-difluorophenyl)-N^2-((5-(2-hydroxyethyl)-4-methylthiazol-2-yl)(piperidin-2-yl)methyl)oxalamide.HCl], the CC50 is above 105 µM in data set [2] and above 84 µM in data set [3] (setting [6]). Also, the IC50 in data set [4] is above 105 µM.

As for `Cc1nc(C(NC(=O)C(=O)Nc2ccc(F)c(F)c2)C2CCCCN2)sc1CCO.Cl.Cl` (centres unmarked) [Compound 33, N^1-(3,4-difluorophenyl)-N^2-((5-(2-hydroxyethyl)-4-methylthiazol-2-yl)(piperidin-2-yl)methyl)oxalamide.2HCl], the CC50 in data set [2] (setting [5]) and in data set [3] (setting [6]) was above 78.2 µM in each case. Also, the “% toxicity at that dose … TZM-bl cells” value in data set [3] (setting [7]) is listed as 10%. For the same compound, the IC50 in data set [4] came to 24.1 ± 4.6 µM.

On to `CC(=O)c1ccc(NC(=O)C(=O)NC(c2nc(C)c(CCO)s2)C2CCCCN2)cc1` (centres unmarked) [Compound 34, N^1-(4-acetylphenyl)-N^2-((5-(2-hydroxyethyl)-4-methylthiazol-2-yl)(piperidin-2-yl)methyl)oxalamide.2HCl], for which the results for the CC50 in data set [2] and in data set [3] were above 48.3 µM and above 77.3 µM, respectively. Also, in data set [4], the IC50 was 24.5 ± 1.5 µM.

`Cc1nc(C(NC(=O)C(=O)Nc2ccc(F)c(Cl)c2)C2CCCCN2)sc1CCO.Cl.Cl` (centres unmarked) [Compound 35, N^1-(3-chloro-4-fluorophenyl)-N^2-((5-(2-hydroxyethyl)-4-methylthiazol-2-yl)(piperidin-2-yl)methyl)oxalamide.2HCl]: the CC50 was around 94.7 µM in data set [2] and above 75.8 µM in data set [3]. Also, in data set [3], the “% toxicity at that dose … TZM-bl cells” value was >75.8 (20%). For the same compound, the IC50 in data set [4] was 19.5 ± 1.8 µM.

Consider `Cc1ccc(NC(=O)C(=O)NC(c2nc(C)c(CCO)s2)C2CCCCN2)c(F)c1` (centres unmarked) [Compound 37, N^1-(2-fluoro-4-methylphenyl)-N^2-((5-(2-hydroxyethyl)-4-methylthiazol-2-yl)(piperidin-2-yl)methyl)oxalamide.2HCl], for which the CC50 in data set [2] (setting [5]) and in data set [3] (setting [6]) was above 78.8 µM throughout. The IC50 in data set [4] amounted to 45.8 ± 3.5 µM.

Regarding `Cc1nc(C(NC(=O)C(=O)NC2CCCCCC2)C2CCCCN2)sc1CCO` (centres unmarked) [Compound 40, N^1-cycloheptyl-N^2-((5-(2-hydroxyethyl)-4-methylthiazol-2-yl)(piperidin-2-yl)methyl)oxalamide.HCl], the CC50 in data set [2] (setting [5]) was around 60 µM; in data set [3] (setting [6]), above 88 µM. For the same compound, in data set [4], the IC50 amounted to 19.6 ± 4 µM.

Consider `Cc1nc(C(NC(=O)CCC(=O)Nc2ccc(Cl)cc2)C2CCCN2)sc1CO` (centres unmarked) [Compound 41, N^1-(4-chlorophenyl)-N^4-((5-(hydroxymethyl)-4-methylthiazol-2-yl)(pyrrolidin-2-yl)methyl)succinamide.HCl], for which the half-maximal cytotoxic concentration (CC50) in data set [2] and in data set [3] was above 85 µM each time. Besides, the IC50 in data set [4] was above 42 µM.

In the case of `CN1CCN(C(=O)CNC(=O)CCC(=O)Nc2ccc(Cl)cc2)CC1` [Compound 47, N^1-(4-chlorophenyl)-N^4-(2-(4-methylpiperazin-1-yl)-2-oxoethyl)succinamide .HCOOH], the values for the CC50 in data set [2] and in data set [3] were around 97 µM and around 36 µM, respectively. The IC50 in data set [4] was around 48 µM.

As to `CC(C)c1nccn1CCCNC(=O)CCC(=O)Nc1ccc(Cl)cc1` [Compound 48, N^1-(4-chlorophenyl)-N^4-(3-(2-isopropyl-1H-imidazol-1-yl)propyl)succinamide. HCOOH], the CC50 in data set [2] and in data set [3] was above 95 µM each time. For the same compound, the IC50 in data set [4] is above 36 µM.

Regarding `Cc1nccn1CCCNC(=O)CCC(=O)Nc1ccc(Cl)cc1` [Compound 49, N^1-(4-chlorophenyl)-N^4-(3-(2-methyl-1H-imidazol-1-yl)propyl)succinamide. HCOOH], the results for the CC50 in data set [2] and in data set [3] were above 102 µM and 102 µM, respectively. Also, the IC50 in data set [4] was above 38 µM.

On to `Cc1nc(C(NC(=O)CCC(=O)Nc2ccc(Cl)cc2)C2CCCCN2)sc1CO.Cl` (centres unmarked) [Compound 51, N^1-(4-chlorophenyl)-N^4-((5-(hydroxymethyl)-4-methylthiazol-2-yl)(piperidin-2-yl)methyl)succinamide.HCl], for which the CC50 in data set [2] (setting [5]) and in data set [3] (setting [6]) was above 82 µM throughout. In addition, the “% toxicity at that dose (number in parenthesis), MT-2 cells” value in data set [2] turned out to be 20%. The “% toxicity at that dose … TZM-bl cells” value in data set [3] (setting [7]) is on record as 0%. In addition, the IC50 in data set [4] was around 40 µM.
